According to patent publication US11446287B2, “Compounds and methods for EP300 or CBP modulation and indications therefor” (Opna Immuno-Oncology SA, priority 2019, dated 2022):

Each compound was assayed against T1, Recombinant human CBP containing the bromodomain (CBP-BD (1043-1159)) (Homo sapiens, UniProt Q92793) (assay: CBP Alphascreen binding assay). Details: read-out: CREBBP (CBP) IC50.
T1 construct: Recombinant human CBP bromodomain (CBP-BD (1043-1159)); made in house; host or cells: E. coli BL21-CodonPlus (DE3), modified pET vector
Description: CBP Alphascreen Binding Assay
Binding of compounds of Formula (I) with CBP was assessed using Alphascreen™ binding assay. The inhibition of the interaction between the CBP bromodomain and its acetylated target protein was measured quantitatively using recombinant CBP, an acetylated Histone 3 peptide and AlphaScreen™ technology. In absence of inhibition of the CBP protein bound to AlphaScreen™ nickel chelate acceptor beads can interact with the acetylated Histone 3 peptide which was immobilized by the AlphaScreen™ Streptavidin coated beads. This interaction brings donor and acceptor beads in proximity. The close proximity allows the singlet oxygen produced by laser excitation of the donor beads to reach the acceptor beads and generate a luminescence signal. CBP inhibitors result in a decrease in the proximity signal through an inhibition of the CBP—acetylated peptide interaction.
Recombinant human CBP containing the bromodomain (CBP-BD (1043-1159)) was prepared and purified as described in protein expression and purification session. The peptide was human Histone H345-64K56Ac-Biotin (Anaspec CA, USA).
Protocol for CBP assay: All components are prepared in buffer composed of 50 mM HEPES pH 7.5, 50 mM NaCl, 0.01% BSA, 0.01% Triton X-100, 2 mM DTT. Test compounds and DMSO vehicle are diluted 1:50 in buffer and a 4 μL volume was transferred to an Alphaplate. 5.5 μL of CBP protein and 5.5 μL of peptide are added to wells containing 4 μL of various concentrations of test compounds of Formula (I) or DMSO vehicle in an Alphaplate (PerkinElmer GA, USA) and incubated for 1 hour at room temperature. 5 μL donor and acceptor bead mixture was then added with final concentrations of 7.5 μg/ml. 60 minutes after bead addition, Alpha signal was read on the Envision spectrometer (λEx 680 nm, λEm 520-620 nm). Final concentrations of bromodomain proteins and peptide are as shown below.
All data were normalized to the mean of 16 high and 16 low control wells on each plate. A four parameter curve fit of the following formula was then applied: Y=A+((B−A)/(1+((C/x)^D))) Where ‘A’ is the minimum, ‘B’ is the maximum, ‘C’ is the IC50 and ‘D’ is the Hill slope. Protein Expression and Purification
Recombinant human CBP bromodomain (CBP-BD (1043-1159)) was expressed in E. coli cells (in a modified pET vector) with an N-terminal six-His tag and purified using a combination of both IMAC (Ni-affinity) and size exclusion chromatography steps.
Recombinant CBP protein was expressed using the E. coli strain BL21-CodonPlus (DE3) (Agilent Technologies CA, USA). Cells were grown in Terrific Broth (TB) media to an OD600 of 0.92 at 37° C. at which temperature was reduced to 20° C., protein was induced with 1.0 mM isopropyl-β-D-thiogalactopyranoside (“IPTG”) for 20 hours and harvested by centrifugation at 8500×g for 20 minutes. Cells were re-suspended in 0.1M K2PO4 pH 8.0, 250 mM NaCl, 10% Glycerol, 0.75% NP-40, 25 mM Imidazole, with 0.2 mg/ml Lysozyme, 0.2 mM phenylmethanesulfonyl fluoride (“PMSF”), […] (“BME”), 25 μg/ml DNase I, incubated on ice for 30 minutes and lysed with a cell disruptor (MicroFluidics MA, USA). The lysate was clarified by centrifugation at 20,000×g for 1 hour. The protein was captured with Ni-NTA resin (Life Technologies, USA). Contaminating proteins were washed off with 40 mM HEPES pH 7.5, 500 mM NaCl, 5% Glycerol, 5 mM Imidazole, and 5 mM BME. Following 3× wash steps, protein was eluted using 400 mM Imidazole in 40 mM HEPES pH 7.5, 400 mM NaCl, and 5 mM BME. The protein was further purified using a size exclusion column (26/600 Superdex 200, GE Biosciences NJ, USA) in 40 mM HEPES pH 7.5, 250 mM NaCl, 5 mM BME. The protein was aliquoted and flash-frozen in liquid Nitrogen.

T1 sequence (Q92793 1081-1197): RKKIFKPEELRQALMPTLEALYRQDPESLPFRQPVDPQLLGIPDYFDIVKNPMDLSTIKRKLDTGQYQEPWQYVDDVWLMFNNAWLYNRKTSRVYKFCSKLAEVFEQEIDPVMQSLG

Row | Compound | IC50
1 | Cc1noc(C)c1-c1cnc2c(c1)c(-c1ccnc(C(=O)O)n1)cn2C(C)c1ccccn1 (stereo not drawn) [P-0126, 4-(5-(3,5-dimethylisoxazol-4-yl)-1-(1-(pyridin-2-yl)ethyl)-1H-pyrrolo[2,3-b]pyridin-3-yl)pyrimidine-2-carboxylic acid] | 0.0001 to 1 µM
2 | Cc1noc(C)c1-c1cnc2c(c1)c(-c1ccc(C(=O)O)cc1OC1COC1)cn2[C@@H](C)c1ccccn1 [P-0137, (S)-4-(5-(3,5-dimethylisoxazol-4-yl)-1-(1-(pyridin-2-yl)ethyl)-1H-pyrrolo[2,3-b]pyridin-3-yl)-3-(oxetan-3-yloxy)benzoic acid] | 0.0001 to 1 µM
3 | Cc1noc(C)c1-c1cnc2c(C(=O)C3CCC3)cn(-c3c(Cl)cc(C(=O)O)cc3Cl)c2c1 [P-0121, 3,5-dichloro-4-(3-(cyclobutanecarbonyl)-6-(3,5-dimethylisoxazol-4-yl)-1H-pyrrolo[3,2-b]pyridin-1-yl)benzoic acid] | 0.0001 to 1 µM
4 | COc1ccc(-n2cc(CC3CCC3)c3ncc(-c4c(C)noc4C)cc32)cn1 [P-0134, 4-(3-(cyclobutylmethyl)-1-(6-methoxypyridin-3-yl)-1H-pyrrolo[3,2-b]pyridin-6-yl)-3,5-dimethylisoxazole] | 1 to 8 µM
5 | Cc1noc(C)c1-c1cnc2c(CC3CCC3)cn(-c3ccc(C(=O)O)cn3)c2c1 [P-0009, 6-(3-(cyclobutylmethyl)-6-(3,5-dimethylisoxazol-4-yl)-1H-pyrrolo[3,2-b]pyridin-1-yl)nicotinic acid] | 0.0001 to 1 µM
6 | CCOc1cc(C(=O)O)ccc1-c1cn([C@@H](C)c2ccccn2)c2ncc(-c3c(C)noc3C)cc12 [P-0114, (S)-4-(5-(3,5-dimethylisoxazol-4-yl)-1-(1-(pyridin-2-yl)ethyl)-1H-pyrrolo[2,3-b]pyridin-3-yl)-3-ethoxybenzoic acid] | 0.0001 to 1 µM
7 | Cc1noc(C)c1-c1cnc2c(CC3CCC3)cn(-c3ccc(C#N)c(C(=O)O)c3)c2c1 [P-0104, 2-cyano-5-(3-(cyclobutylmethyl)-6-(3,5-dimethylisoxazol-4-yl)-1H-pyrrolo[3,2-b]pyridin-1-yl)benzoic acid] | 0.0001 to 1 µM
8 | COc1ccc(C(=O)O)cc1-c1cn(C(C)c2ccccc2)c2cc(-c3c(C)noc3C)cnc12 (stereo not drawn) [P-0140, 3-(6-(3,5-dimethylisoxazol-4-yl)-1-(1-phenylethyl)-1H-pyrrolo[3,2-b]pyridin-3-yl)-4-methoxybenzoic acid] | 1 to 8 µM
9 | Cc1noc(C)c1-c1cnc2c(Cc3ccccn3)cn(-c3ccc(C(=O)O)cn3)c2c1 [P-0011, 6-(6-(3,5-dimethylisoxazol-4-yl)-3-(pyridin-2-ylmethyl)-1H-pyrrolo[3,2-b]pyridin-1-yl)nicotinic acid] | 1 to 8 µM
10 | CCCOc1cc(C(=O)O)cc(OCCC)c1-n1cc(CC2CCC2)c2ncc(-c3c(C)noc3C)cc21 [P-0127, 4-(3-(cyclobutylmethyl)-6-(3,5-dimethylisoxazol-4-yl)-1H-pyrrolo[3,2-b]pyridin-1-yl)-3,5-dipropoxybenzoic acid] | 0.0001 to 1 µM
11 | Cc1noc(C)c1-c1cnc2c(Cc3ccccn3)cn(-c3ccc(C(=O)O)cc3OC(F)(F)F)c2c1 [P-0159, 4-(6-(3,5-dimethylisoxazol-4-yl)-3-(pyridin-2-ylmethyl)-1H-pyrrolo[3,2-b]pyridin-1-yl)-3-(trifluoromethoxy)benzoic acid] | 0.0001 to 1 µM
12 | Cc1noc(C)c1-c1cnc2c(-c3cccc(CC(=O)O)c3)c(C(F)(F)F)n([C@@H](C)c3ccccn3)c2c1 [P-0161, (S)-2-(3-(6-(3,5-dimethylisoxazol-4-yl)-1-(1-(pyridin-2-yl)ethyl)-2-(trifluoromethyl)-1H-pyrrolo[3,2-b]pyridin-3-yl)phenyl)acetic acid] | 0.0001 to 1 µM
13 | COc1cc(C(=O)O)cc(OC)c1-c1cn([C@@H](C)c2ccccn2)c2cc(-c3c(C)noc3C)cnc12 [P-0146, (S)-4-(6-(3,5-dimethylisoxazol-4-yl)-1-(1-(pyridin-2-yl)ethyl)-1H-pyrrolo[3,2-b]pyridin-3-yl)-3,5-dimethoxybenzoic acid] | 1 to 8 µM
14 | CCOc1cc(C(=O)O)cc(OCC)c1-n1cc(C(O)(C2CC2)C2CC2)c2ncc(-c3c(C)noc3C)cc21 [P-0165, 4-(3-(dicyclopropyl(hydroxy)methyl)-6-(3,5-dimethylisoxazol-4-yl)-1H-pyrrolo[3,2-b]pyridin-1-yl)-3,5-diethoxybenzoic acid] | 0.0001 to 1 µM
15 | COc1cc(C(=O)O)cc(OCC2CC2)c1-c1cn([C@@H](C)c2ccccn2)c2ncc(-c3c(C)noc3C)cc12 [P-0152, (S)-3-(cyclopropylmethoxy)-4-(5-(3,5-dimethylisoxazol-4-yl)-1-(1-(pyridin-2-yl)ethyl)-1H-pyrrolo[2,3-b]pyridin-3-yl)-5-methoxybenzoic acid] | 0.0001 to 1 µM
16 | C#Cc1ccccc1-c1cn(C(C)(c2ccccn2)c2ccccn2)c2cc(-c3c(C)noc3C)cnc12 [P-0167, 4-(1-(1,1-di(pyridin-2-yl)ethyl)-3-(2-ethynylphenyl)-1H-pyrrolo[3,2-b]pyridin-6-yl)-3,5-dimethylisoxazole] | 0.0001 to 1 µM
17 | Cc1noc(C)c1-c1cnc2c(CC3CCC3)cn(-c3ccc(C(=O)O)c4ccoc34)c2c1 [P-0110, 7-(3-(cyclobutylmethyl)-6-(3,5-dimethylisoxazol-4-yl)-1H-pyrrolo[3,2-b]pyridin-1-yl)benzofuran-4-carboxylic acid] | 0.0001 to 1 µM
18 | Cc1noc(C)c1-c1cnc2c(-c3ccccc3C(=O)O)cn(C(C)c3ccccc3)c2c1 (stereo not drawn) [P-0120, 2-(6-(3,5-dimethylisoxazol-4-yl)-1-(1-phenylethyl)-1H-pyrrolo[3,2-b]pyridin-3-yl)benzoic acid] | 1 to 8 µM
19 | Cc1noc(C)c1-c1cnc2c(c1)c(-c1ccc(C(=O)O)cc1)cn2C(c1ccccn1)c1ccccn1 [P-0012, 4-(1-(di(pyridin-2-yl)methyl)-5-(3,5-dimethylisoxazol-4-yl)-1H-pyrrolo[2,3-b]pyridin-3-yl)benzoic acid] | 0.0001 to 1 µM
20 | Cc1noc(C)c1-c1cnc2c(c1)c(-c1ccc(C(=O)O)cc1OCC1CC1)cn2[C@@H](C)c1ccccn1 [P-0138, (S)-3-(cyclopropylmethoxy)-4-(5-(3,5-dimethylisoxazol-4-yl)-1-(1-(pyridin-2-yl)ethyl)-1H-pyrrolo[2,3-b]pyridin-3-yl)benzoic acid] | 0.0001 to 1 µM
21 | Cc1noc(C)c1-c1cnc2c(-c3ccccc3)cn(-c3c(Cl)cc(C(=O)O)cc3Cl)c2c1 [P-0150, 3,5-dichloro-4-(6-(3,5-dimethylisoxazol-4-yl)-3-phenyl-1H-pyrrolo[3,2-b]pyridin-1-yl)benzoic acid] | 0.0001 to 1 µM
22 | COc1cc(C(=O)O)cc(OCC(F)(F)F)c1-c1cn([C@@H](C)c2ccccn2)c2ncc(-c3c(C)noc3C)cc12 [P-0153, (S)-4-(5-(3,5-dimethylisoxazol-4-yl)-1-(1-(pyridin-2-yl)ethyl)-1H-pyrrolo[2,3-b]pyridin-3-yl)-3-methoxy-5-(2,2,2-trifluoroethoxy)benzoic acid] | 0.0001 to 1 µM
23 | Cc1noc(C)c1-c1cnc2c(c1)c(-c1ccc(C(=O)O)cc1F)cn2[C@@H](C)c1ccccn1 [P-0097, (S)-4-(5-(3,5-dimethylisoxazol-4-yl)-1-(1-(pyridin-2-yl)ethyl)-1H-pyrrolo[2,3-b]pyridin-3-yl)-3-fluorobenzoic acid] | 0.0001 to 1 µM
24 | Cc1noc(C)c1-c1cnc2c(C(=O)c3cccc(OCc4ccccc4)c3)cn(-c3c(Cl)cc(C(=O)O)cc3Cl)c2c1 [P-0133, 4-(3-(3-(benzyloxy)benzoyl)-6-(3,5-dimethylisoxazol-4-yl)-1H-pyrrolo[3,2-b]pyridin-1-yl)-3,5-dichlorobenzoic acid] | 0.0001 to 1 µM
